Measurements taken from patent US11981702B2, “Compounds for fluorescence sensing of duplex formation” (San Diego State University Research Foundation, priority 2016, dated 2024).
Read-outs that look alike come from different tables or passages of the source. Values belong to the molecule of their own block, whether it stands above or below them. [8-DEA-tC] = 8-diethylamino tricyclic cytidine analogue (fluorescent), on 2'-deoxyribose

Legend:
[1] = UV/Vis absorption and steady state emission spectra; assay type: physicochemical; details: for ds λmax,abs / ds λmax,em: double-stranded; for ds λmax,abs / ds λmax,em / λmax,abs (ss) / λmax,em (ss): 1x PBS buffer pH 7.4; for λmax,abs (ss) / λmax,em (ss): single-stranded
Description: (§1) All photophysical experiments were measured in a quartz sub-micro cuvette (10 mm path length) purchased from Starnacell Inc. Solutions were prepared in 1×PBS buffer at pH 7.4. Steady state emission scans were recorded using a PTI QuantaMaster QM-400 and absorbances were measured on a Shimadzu UV-1700 Pharmaspec spectrometer. Quantum yield measurements were performed the comparative method of Williams et. al. and measured in duplicate, at minimum.[7] Quinine sulfate in 0.1M H2SO4 was used as a reference standard for all photophysical measurements. Measurements by using a commercial sample of pyrrolo-dC to obtain a fluorescence quantum yield of 0.046, matching the value of 0.05 as reported by the Tor group were validated.[8] All measurements were taken with an absorbance range of 0.01-0.1. Subsequent dilutions were performed stepwise in order to obtain a minimum of five absorbance and emission spectra for quantum yield determinations. Representative data from these quantum yield measurements is plotted below. Quantum yield determinations were obtained using the following equation: […]
Normalized absorption and emission plots of single-stranded oligonucleotides and double-stranded oligonucleotides in 1×PBS buffer at pH 7.4 were determined accordingly.

complementary strand [2] = experiment: CD melting temperature of oligonucleotide duplexes (ellipticity at 255 nm); assay type: physicochemical; details: for ΔTm: Tm for natural DNA duplex subtracted from Tm for the 8-DEA-tC-containing duplex; for Tm: duplex 5 μM in PBS pH 7.4
Description: UV CD spectra of oligonucleotide duplexes at a concentration of 5 μM in phosphate buffered saline (10 mM sodium phosphate, pH 7.4, […] potassium chloride, 137 mM sodium chloride) were collected at 25° C. in a 1 cm path length cell on an Aviv model 420 spectrophotometer equipped with a Peltier temperature controller. Background-subtracted spectra were smoothed and normalized to concentration using A260 nm as calculated from detector voltage using the following equation and converted to standard units. […] 255 nm was monitored from 15° C. to 75° C. at 1° C. increments. The TM of each duplex was calculated by fitting the raw data to a two-state model in Igor Pro. Melting curves are reported as fraction unfolded.

complementary strand [3] = experiment: Quantum yield of fluorescence emission of double-stranded oligonucleotides after adding complementary strand; assay type: physicochemical; details: for ds Φem: double-stranded oligonucleotide, 1x PBS buffer pH 7.4; for increase in fluorescent quantum yield in duplex DNA as compared with the free nucleoside: matched duplex, depending on neighboring bases
Description: (§2) Quantum yields of fluorescence emission were determined using the comparative method of Williams et. al. (Analyst 1983, 108, 1067) and a fluorescence standard of quinine sulfate in 0.1M H2SO4 (Table 1 and FIG. 2). The single-stranded oligonucleotides have quantum yields of fluorescence emission ranging from Φem=0.01-0.03, all brighter than the free 8-DEA-tC nucleoside by up to a factor of five. Addition of the complementary sequences and duplex formation results in further fluorescence increase in all sequences, up to Φem=0.12 for sequence GC. This quantum yield is 20-fold greater than that of the free 8-DEA-tC nucleoside, the largest such increase reported to date for a fluorescent nucleoside analogue.
as §1
Samples of double-stranded oligonucleotides were prepared using a known concentration of single-stranded oligonucleotide and adding a total of 2.4 equivalents of complementary strand at room temperature. A single-strand absorbance and emission were taken prior to the addition of the first 1.2 equivalents of complementary strand for purposes of single-strand calculation and verification of hybridization. An additional 1.2 equivalent is added after the first double-strand to ensure that complete hybridization was achieved. Thermal annealing procedures had no effect on the measurements as expected, given that these sequences were chosen to have no competing, stable secondary structures.

[4] = Quantum yield of fluorescence emission, comparative method of Williams et al., quinine sulfate standard (free nucleosides, single-stranded oligonucleotides); assay type: physicochemical; details: for ss Φem: single-stranded oligonucleotide, 1x PBS buffer pH 7.4
Description: as §2, §1
The determination of quantum yields for single-stranded oligonucleotides containing 8-DEA tC were calculated using the integrated emission intensity measurements of the single strand prior to the addition of the complementary strand, with the following equation. This method was validated by comparison with and confirmed with a SS quantum yield experiment.

[5] = UV/Vis absorption and steady state emission spectra; assay type: physicochemical; details: free nucleoside, 1,4-dioxane
[6] = Stern-Volmer analysis of chloride quenching; assay type: physicochemical; details: 0 mM to 180 mM NaCl
Description: To test the ability of the duplex to attenuate chloride quenching of 8-DEA-tC, a Stern-Volmer analysis was performed using the 8-DEA-tC nucleoside and the TT duplex oligonucleotide (see Examples section below). […] In contrast, chloride has a modest quenching effect on 8-DEA-tC when present in the matched TT duplex.
In order to assess the magnitude that chloride, present in our buffers, would quench the fluorescent cytidine analogues, a Stern-Volmer analysis was performed spanning from 0 mM NaCl to 180 mM NaCl to mimic the environment of the 1XPBS buffer used in the fluorescence measurements of the oligomers.
A solution fluorophore was prepared and a known volumes of a 0.5 M NaCl solution were titrated in and the resulting fluorescence change was measured. The dilution factor was taken into account when calculating integrated fluorescence intensity.

[7] = Viscosity sensitivity of fluorescence in methanol-glycerol mixtures; assay type: physicochemical; details: 25° C.
Source text: It was hypothesized that the C—N bond appending the diethylamino group to tC may provide a molecular rotor effect, enabling non-emissive relaxation coupled to conformational change at the excited state. […] For this reason, it was hypothesized that slowed water dynamics in the major groove of the duplex could cause an increase in the fluorescence of 8-DEA-tC. To test this hypothesis, a comparison of the solvent viscosity sensitivity of fluorescence of the 8-DEA-tC nucleoside with parent tC and 9-(2,2-dicyanovinyl)julolidine (DCVJ, a frequently used reference compound for viscosity effects on fluorescence) using mixtures of glycerol and methanol was performed (see Examples section below).
The responsiveness of (8-DEA)tC, tC, and 9-(2,2-dicyanovinyl)julolidine (DCVJ) to viscosity changes using binary methanol-glycerol mixtures was determined.
Molecular rotors are known to have fluorescent properties that are dependent on the medium viscosity, the fluorescence spectra of parent tC and (8-DEA)tC were examined in methanol-glycerol mixtures ranging from 0 to 100% methanol in glycerol at 25° C. […]
A calibration plot of fluorescence intensity (I) versus viscosity (η) were constructed using the Foster-Hoffman equation ΦF=zη^α, relating the fluorescence quantum yield (ΦF) as a function of viscosity (η) and fluorophore and solvent-specific constants (z, α).

[8] = Quantum yield of fluorescence emission, comparative method of Williams et al., quinine sulfate standard (free nucleosides, single-stranded oligonucleotides); assay type: physicochemical; details: free nucleoside, 1,4-dioxane
[9] = value reported by the Tor group; cited from earlier work
DNA-RNA heteroduplex = experiment: Fluorescence turn-on response in DNA-RNA heteroduplex; assay type: physicochemical; details: 1x PBS buffer at pH 7.4
Source text: The RNA version (Y═OH) has been synthesized and characterized. […] The shape (conformation) of double-stranded nucleic acids can vary, and there are three major forms: A, B, and Z. Double-stranded DNA is naturally B form. Double-stranded RNA is naturally A form. And a DNA-RNA heteroduplex also naturally takes A form. For that reason, it is possible to use a DNA-RNA heteroduplex to predict fluorescence properties in pure RNA.

matching complement = experiment: Visual discrimination of single nucleotide mismatch under hand-held UV lamp; assay type: physicochemical; details: 0.26 mM in 0.5X PBS buffer, versus oligo alone and mismatch duplex
Description: Next, the ability of 8-DEA-tC to distinguish single nucleotide by a visible fluorescence response was tested (FIG. 5). 0.26 mM solutions of GC oligo in 0.5X PBS buffer were prepared with the GC oligo alone, a duplex with the matching complement, and a duplex with an 8-DEA-tC mismatch.

Molecule: GG: 5′-CGC-AGX-GTC-G-3′ (SEQ ID NO: 14), X = 8-DEA-tC (DNA CGCAGCGTCG; DNA, [8-DEA-tC] at 6, backbone not given here)
- ds λmax,abs [1]: 400 nm
- ds λmax,em [1]: 499 nm
- λmax,abs (ss) [1]: 415 nm
- λmax,em (ss) [1]: 498 nm
- ΔTm (complementary strand [2]): -7.0 °C
- Tm (complementary strand [2]): 58.2 °C
- ds Φem (complementary strand [3]): 0.056
- ss Φem [4]: 0.027

- ε ([1]; free nucleoside, 1x PBS buffer): 2700 M⁻¹ cm⁻¹
- λmax,abs ([1]; free nucleoside, 1x PBS buffer): 395 nm
- λmax,em ([1]; free nucleoside, 1x PBS buffer): 493 nm
- λmax,abs [5]: 389 nm
- λmax,em [5]: 524 nm
- increase in Φem when mispaired with A (complementary strand [3]; 8-DEA-tC opposite A in duplex): less than 2 fold
- increase in fluorescent quantum yield in duplex DNA as compared with the free nucleoside (complementary strand [3]): ≤ 20 fold
- sensitivity to quenching by protic solvent relative to parent tC [4]: approximately twice as sensitive
- Φem in deuterated buffer ([4]; deuterated 1X PBS buffer): 0.012
- Φem ([4]; free nucleoside, 1x PBS buffer): 0.006
- increase of Φem on solvent change ([4]; free nucleoside, 1x PBS buffer to 1,4-dioxane): 10 fold
- response of fluorescence intensity to viscosity [7]: positively correlated to viscosity
- Φem [8]: 0.06
Molecule: CCN(CC)c1ccc2c(c1)Nc1nc(=O)n([C@H]3CC(O)[C@@H](CO)O3)cc1S2 (stereo partly drawn) [8-DEA-tC, 8-Diethylamino-tricyclic-2′-deoxy-β-D-ribonucleoside]
- Φem opposite an abasic site (complementary strand [3]; 8-DEA-tC opposite abasic site (dSpacer) in duplex): effectively the same as for the free nucleoside
- effect of chloride on fluorescence [6]: more fluorescent with increasing chloride concentration

Molecule: GA: 5′-CGC-AGX-ATC-G-3′ (SEQ ID NO: 10), X = 8-DEA-tC (DNA CGCAGCATCG; DNA, [8-DEA-tC] at 6, backbone not given here)
- ds λmax,abs [1]: 422 nm
- ds λmax,em [1]: 499(499) nm
- λmax,abs (ss) [1]: 425 nm
- λmax,em (ss) [1]: 499(499) nm
- ΔTm (complementary strand [2]): -5.1 °C
- Tm (complementary strand [2]): 50.7 °C
- ds Φem (complementary strand [3]): 0.050
- ss Φem [4]: 0.020

- fluorescence quantum yield ([4]; commercial sample, method validation): 0.046
Molecule: Cc1cc2cn([C@H]3C[C@H](O)[C@@H](CO)O3)c(=O)nc2[nH]1 [pyrrolo-dC, reference compound]
- fluorescence quantum yield [9]: 0.05

Molecule: TA: 5′-CGC-ATX-ATC-G-3′ (SEQ ID NO: 16), X = 8-DEA-tC (DNA CGCATCATCG; DNA, [8-DEA-tC] at 6, backbone not given here)
- ds λmax,abs [1]: 420 nm
- ds λmax,em [1]: 495 (495) nm
- λmax,abs (ss) [1]: 417 nm
- λmax,em (ss) [1]: 495 (495) nm
- ΔTm (complementary strand [2]): -1.6 °C
- Tm (complementary strand [2]): 48.7 °C
- ds Φem (complementary strand [3]): 0.026
- ss Φem [4]: 0.014

Molecule: AA: 5′-CGC-AAX-ATC-G-3′ (SEQ ID NO: 18), X = 8-DEA-tC (DNA CGCAACATCG; DNA, [8-DEA-tC] at 6, backbone not given here)
- ds λmax,abs [1]: 410 nm
- ds λmax,em [1]: 498 nm
- λmax,abs (ss) [1]: 415 nm
- λmax,em (ss) [1]: 497 nm
- ΔTm (complementary strand [2]): -2.6 °C
- Tm (complementary strand [2]): 48.4 °C
- ds Φem (complementary strand [3]): 0.042
- fluorescence turn-on effect in DNA-RNA heteroduplex relative to double-stranded DNA (DNA-RNA heteroduplex): at least three times better
- ss Φem [4]: 0.008

Molecule: CC: 5′-CGC-ACX-CTC-G-3′ (SEQ ID NO: 15), X = 8-DEA-tC (DNA CGCACCCTCG; DNA, [8-DEA-tC] at 6, backbone not given here)
- ds λmax,abs [1]: 413 nm
- ds λmax,em [1]: 496 (496) nm
- λmax,abs (ss) [1]: 421 nm
- λmax,em (ss) [1]: 496 (496) nm
- ΔTm (complementary strand [2]): +6.7 °C
- Tm (complementary strand [2]): 60.2 °C
- ds Φem (complementary strand [3]): 0.024
- ss Φem [4]: 0.013

Molecule: CA: 5′-CGC-ACX-ATC-G-3′ (SEQ ID NO: 13), X = 8-DEA-tC (DNA CGCACCATCG; DNA, [8-DEA-tC] at 6, backbone not given here)
- ds λmax,abs [1]: 410 nm
- ds λmax,em [1]: 494 nm
- λmax,abs (ss) [1]: 420 nm
- λmax,em (ss) [1]: 493 nm
- ΔTm (complementary strand [2]): +2.1 °C
- Tm (complementary strand [2]): 57.4 °C
- ds Φem (complementary strand [3]): 0.017
- ss Φem [4]: 0.014

- response of fluorescence intensity to viscosity [7]: three-fold greater
Molecule: N#CC(C#N)=Cc1cc2c3c(c1)CCCN3CCC2 [DCVJ, 9-(2,2-dicyanovinyl)julolidine, reference compound]

Molecule: GC: 5′-CGC-AGX-CTC-G-3′ (SEQ ID NO: 12), X = 8-DEA-tC (DNA CGCAGCCTCG; DNA, [8-DEA-tC] at 6, backbone not given here)
- ds λmax,abs [1]: 348 nm
- ds λmax,em [1]: 500 nm
- λmax,abs (ss) [1]: 425 nm
- λmax,em (ss) [1]: 499 nm
- ΔTm (complementary strand [2]): -14.5 °C
- Tm (complementary strand [2]): 49.1 °C
- ds Φem (complementary strand [3]): 0.12
- increase in fluorescent quantum yield in duplex DNA as compared with the free nucleoside (complementary strand [3]): 20 fold
- visible fluorescence response of matched duplex (matching complement): large increase in fluorescence
- ss Φem [4]: 0.032
